According to US12612420B2, “Arginase inhibitors and methods of use thereof” (Molecure S.A., priority 2020, dated 2026):
Where a name gives a salt, the structure may show the parent alone.

How the values were obtained:
[1] = target: T1, recombinant human arginase 1 (hARG1) (Homo sapiens, UniProt P05089); test: Human arginase inhibition assay (colorimetric urea detection), arginase 1; assay type: biochemical; conditions: IC50 class; hydrochloride salts; 1 h at 37° C., pH 7.4, 10 mM L-arginine, 200 μM MnCl2; read-out: Activity Class (ARG I)
T1 construct: made in house; host or cells: E. coli
T1 sequence (P05089 1-322): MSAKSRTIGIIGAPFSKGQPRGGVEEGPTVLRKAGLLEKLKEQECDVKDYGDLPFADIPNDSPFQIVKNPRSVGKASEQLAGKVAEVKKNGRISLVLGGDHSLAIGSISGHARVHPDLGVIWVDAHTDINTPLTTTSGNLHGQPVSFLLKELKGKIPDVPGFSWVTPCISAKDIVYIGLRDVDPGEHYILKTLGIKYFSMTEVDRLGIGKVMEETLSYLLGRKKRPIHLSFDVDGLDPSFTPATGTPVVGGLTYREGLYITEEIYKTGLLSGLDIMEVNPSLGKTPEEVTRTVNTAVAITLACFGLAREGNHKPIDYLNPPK
Method: (§1) Human Arginase Inhibition Assay
(§2) The inhibitory activities of the compounds of the invention were assessed using recombinant human arginases 1 and 2. Both enzymes were biosynthesized using a prokaryotic expression system (E. coli) and purified by fast protein liquid chromatography (FPLC). The compounds were screened in 96-well plates at the total reaction volume of 100 μL. Briefly, recombinant enzymes were incubated with the tested compounds for 1 h at 37° C. in the reaction buffer (100 mM sodium phosphate buffer, 130 mM NaCl, 1 mg/mL BSA, pH 7.4) containing substrate (L-arginine hydrochloride, 10 mM for hARG1 and 20 mM for hARG2) and cofactor (200 μM MnCl2). The assay is based on the detection of urea, which is generated during the conversion of L-arginine into L-omithine catalyzed by ARG1 or ARG2 (Baggio et al. J Pharmacol. Exp. Ther. 1999, 290, 1409-1416). The colorimetrically detectable product was developed by adding a mixture of reagent A (4 mM oPA, 50 mM boric acid, 1 M sulfuric acid, 0.03% Brij-35) and reagent B (4 mM NED, 50 mM boric acid, 1 M sulfuric acid, 0.03% Brij-35) in equal proportions. The absorbance for each well was measured at 515 nm and the enzyme inhibition was calculated. The urea production in the absence of any tested compound was considered as maximal enzyme activity. The absorbance at the absence of arginase (background) was subtracted from all the values. The normalized values were analyzed using GraphPad Prism 7.0 software by plotting inhibition curves and determining the IC50 values.
(§3) The inhibitory activity classes of the hydrochloride salts of the exemplary compounds according to the invention are presented in Table 1

[2] = target: T2, intracellular arginase in macrophages isolated from murine bone marrow (BMDM) (Mus musculus, UniProt Q61176); test: Cell-based assay: intracellular arginase in bone marrow derived macrophages (BMDM), urea in culture medium; design: species or system murine (C57BL/6 mice); conditions: IC50 class; M2-polarised murine BMDM (M-CSF, TGF-β, IL-4), urea in medium after 24 hours
T2 construct: endogenous in cells; host or cells: primary bone-marrow-derived macrophages from C57BL/6 mice, cultured with M-CSF, TGF-β and IL-4
T2 sequence (Q61176 1-323): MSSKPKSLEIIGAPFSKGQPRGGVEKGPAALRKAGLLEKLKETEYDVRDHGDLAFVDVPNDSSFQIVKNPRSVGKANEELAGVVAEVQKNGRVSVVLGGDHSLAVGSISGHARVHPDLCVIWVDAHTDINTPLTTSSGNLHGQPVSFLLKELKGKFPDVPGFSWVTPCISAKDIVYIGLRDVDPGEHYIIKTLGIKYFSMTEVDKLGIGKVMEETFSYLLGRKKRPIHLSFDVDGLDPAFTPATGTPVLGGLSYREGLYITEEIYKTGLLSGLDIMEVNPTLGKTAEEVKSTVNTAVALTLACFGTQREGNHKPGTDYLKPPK
Method: To illustrate the lower cellular activity of the compounds according to the invention versus arginase inhibitors disclosed in U.S. Ser. No. 10/391,077 B2, the selected examples were tested in cell-based assay using murine primary macrophages. Lower intracellular activity observed for the compounds according to the invention may potentially result in lower hepatotoxicity compared to the arginase inhibitors disclosed in U.S. Ser. No. 10/391,077 B2.
Efficacy of Selected Examples Towards Intracellular Arginase in Macrophages Isolated from Murine Bone Marrow—Bone Marrow Derived Macrophages (BMDM)
Murine bone marrow-derived or peritoneal macrophages comprise a convenient in vitro model that enables differentiation of these cells towards M1 or M2 macrophages and further use for the study.
Materials & Methods: The assay was performed according to modified literature protocol (Pineda-Torra I et al., Methods Mol Biol. 2015; 1339:101-9. Mia S et al., Scand J Immunol. 2014 May; 79(5):305-14). The femurs and tibias were isolated from C57BL/6 mice. Bones were cleaned from all attached tissues by using a sterile swab without affecting the bone structure. The sides of the bones were cut off and flush with cold sterile PBS by using 26-G needle S into a 50 mL sterile tube with a cell strainer (Falcon™, Cat. No. U00149), until the bone cavity appeared white. Then, the cells were centrifuged (5 min at 500×G, 4° C.), washed twice with PBS and counted. Cells were plated in Petri dish in density of 1×10^6/mL and cultured in DMEM (Gibco, Cat. No. 31331-029) with 10% FBS, 1% pen-strep and 50 ng/mL M-CSF (PeproTech, Cat. No. 315-02), (37° C., 5% CO2). After five days cells were subcultured into P96 plate (BD, Cat. No. 353072) at the density of 64,000 cells/well in medium supplemented with 50 ng/mL M-CSF, 20 ng/mL TGF-β and 30 ng/mL IL-4 (Biomibo Cat. No. 214-1). One day later exemplary compounds (dissolved in PBS) were added in several different concentrations and 24 hours later the level of urea was measured in the culture medium in each well (Jung D et al., Clin Chem. 1975, 21(8):1136-40). The concentration of urea in the absence of any compound was considered as the maximum enzyme activity. The absorbance of cell culture media (background) was subtracted from all the values.
The IC50 values were calculated using GraphPad Prism 7.0. and assigned into the following classes: A=10-100 μM; and B>100 μM.

[3] = target: T3, recombinant human arginase 2 (hARG2) (Homo sapiens, UniProt P78540); test: Human arginase inhibition assay (colorimetric urea detection), arginase 2; assay type: biochemical; conditions: IC50 class; hydrochloride salts; 1 h at 37° C., pH 7.4, 20 mM L-arginine, 200 μM MnCl2; read-out: Activity Class (ARG II)
T3 construct: made in house; host or cells: E. coli
T3 sequence (P78540 23-354): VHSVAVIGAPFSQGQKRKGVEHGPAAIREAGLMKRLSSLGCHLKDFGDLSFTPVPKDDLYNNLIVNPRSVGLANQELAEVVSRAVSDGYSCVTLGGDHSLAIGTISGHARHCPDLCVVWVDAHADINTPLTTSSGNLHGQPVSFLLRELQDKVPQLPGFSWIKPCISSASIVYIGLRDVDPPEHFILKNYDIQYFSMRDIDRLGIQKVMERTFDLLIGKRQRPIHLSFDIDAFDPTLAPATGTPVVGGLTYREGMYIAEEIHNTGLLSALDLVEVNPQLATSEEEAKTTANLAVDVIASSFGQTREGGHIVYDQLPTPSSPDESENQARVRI
Method: as §1, §2, §3

IC50 [1]: 1 to 99 nM
IC50 [2]: 10000 to 100000 nM
IC50 [3]: 100 to 199 nM
SMILES: CC(C)C[C@H](N)C(=O)NC[C@@H]1CC[C@@H](CCB(O)O)C[C@]1(N)C(=O)O [Example 6, (1R,2S,5R)-1-Amino-2-(((S)-2-amino-4-methylpentanamido)methyl)-5-(2-boronoethyl)cyclohexane-1-carboxylic acid dihydrochloride]
